According to ChEMBL document CHEMBL4342431, “Synthesis and antileishmanial evaluation of thiazole orange analogs” (Bioorg Med Chem Lett, 2020):
Activity calls are given as the source filed them. The calls are words filed in the database; no cut-off is given here.

How the values were obtained:
[1] = tested on: Leishmania donovani; test: Antileishmanial activity against Leishmania donovani Ld1s intracellular amasitgote infected in J774 cells incubated for 72 hrs by non-radioactive cell proliferation assay; format: functional, organism-based; conditions: J774, 72 h
[2] = tested on: J774; test: Cytotoxicity against mouse J774 cells assessed as reduction in cell viability incubated for 72 hrs by MTT assay; format: cell-based; conditions: J774, 72 h
[3] = Selectivity index, ratio of IC for mouse J774 cells to IC50 for Leishmania donovani Ld1s promastigotes; format: toxicity; conditions: J774 cells versus Leishmania donovani Ld1s promastigotes, read-out: Ratio IC50
[4] = tested on: Leishmania donovani; test: Antileishmanial activity against Leishmania donovani LV82 intracellular amastigotes infected in murine peritoneal macrophage incubated for […] by beta-lactamase reporter gene based spectrophotometry; format: functional, organism-based
[5] = Selectivity index, ratio of IC50 for mouse peritoneal macrophages to IC50 for Leishmania donovani LV82 intracellular amastigotes; format: toxicity, cell-based; conditions: read-out: Ratio IC50
[6] = tested on: Leishmania donovani; test: Antileishmanial activity against Leishmania donovani LV82 promastigotes infected in BALB/c mouse assessed as reduction in liver parasitemia at 1.2 mg/kg, ip administered for 5 days by Geimsa staining based assay relative to control; format: functional; design: scale not given: the % may be the effect or the level left
[7] = Binding affinity to 5'-dCCAAAATTTTG CTCT CAAAATTTTGG-3' DNA (unknown origin) assessed as change in melting temperature at 2:1 ligand and DNA by specrophotometry
[8] = Binding affinity to 5'-dCCAAAAGTTTTG CTCT CAAAACTTTTGG-3' DNA (unknown origin) assessed as change in melting temperature at 2:1 ligand and DNA by specrophotometry
[9] = Binding affinity to 5'-dCCAAAATTTTG CTCT CAAAATTTTGG-3' DNA (unknown origin) assessed as DNA intercalation incubated for 5 mins by circular dichroism method
[10] = tested on: Leishmania donovani; test: Antileishmanial activity against Leishmania donovani LV82 amastigotes infected in mouse peritoneal microphage incubated for 72 hrs by DAPI staining based assay; format: functional, organism-based; conditions: LV82, 72 h

IC50 [4]	ΔTm [7]	ΔTm [8]	Activity [9]	IC50 [10]	Compound	IC50 [1]	IC50 [2]	selectivity ratio [3]	selectivity ratio [5]	Activity [6]
					CN1/C(=C/c2cc[n+](C)c3c(-c4ccccc4)cccc23)Sc2ccccc21	24 nM	200 nM	8.3		
					CN1/C(=C/c2cc[n+](C)c3ccccc23)Sc2ccccc21 [listing 1 of 2 here]	14 nM	190 nM	14		
					N=C(N)c1ccc(OCCCCCOc2ccc(C(=N)N)cc2)cc1 [PENTAMIDINE]	3100 nM				
21 nM					CN1/C(=C/c2cc[n+](C)c3ccccc23)Sc2ccccc21.Cc1ccc(S(=O)(=O)[O-])cc1				25	48%
					CN1/C(=C/c2cc[n+](C)c3ccc(-c4ccccc4)cc23)Sc2ccccc21	37 nM	180 nM	4.9		
					CCC[n+]1ccc(/C=C2\Sc3ccccc3N2C)c2ccccc21	13 nM	140 nM	11		
					COc1ccc2c(/C=C3\Sc4ccccc4N3C)cc[n+](C)c2c1	35 nM	140 nM	4		
					COc1ccc2c(c1)c(/C=C1\Sc3ccccc3N1C)cc[n+]2C	28 nM	200 nM	7.1		
	4 °C	4 °C			Cc1ccc2c(/C=C3\Sc4ccccc4N3C)cc[n+](C)c2c1	37 nM	120 nM	3.2		
					COc1cc([C@@H]2c3cc4c(cc3[C@H](O)[C@H]3COC(=O)[C@H]23)OCO4)cc(OC)c1OC [PODOFILOX]		23 nM			
	2 °C	1 °C			CN1C=CS/C1=C\c1cc[n+](C)c2ccccc12	160 nM	1500 nM	9.4		
	4 °C	4 °C			CN1/C(=C/c2cc[n+](C)c3ccccc23)Sc2ccccc21 [listing 2 of 2 here]					
	5 °C	4 °C	Active		Cc1ccc2c(c1)c(/C=C1\Sc3ccccc3N1C)cc[n+]2C	31 nM	200 nM	6.5		
					CN1/C(=C/c2cc[n+](C)c3ccc(Cl)cc23)Sc2ccccc21	31 nM	310 nM	10		
	4 °C	3 °C			Cc1cccc2c(/C=C3\Sc4ccccc4N3C)cc[n+](C)c12	30 nM	120 nM	4		
					CN1/C(=C/c2cc[n+](C)c3cc(-c4ccccc4)ccc23)Sc2ccccc21	13 nM	69 nM	5.3		
					CN1/C(=C/c2cc[n+](C)c3cccc(Cl)c23)Sc2ccccc21	16 nM	130 nM	8.1		
					CN1/C(=C/c2cc[n+](Cc3ccccc3)c3ccccc23)Sc2ccccc21	26 nM	190 nM	7		
					COc1cccc2c(/C=C3\Sc4ccccc4N3C)cc[n+](C)c12	30 nM	59 nM	2		
				72 nM	CC[n+]1ccc(/C=C2\Sc3ccccc3N2C)c2ccccc21	12 nM	170 nM	14		
					CN1/C(=C/c2cc[n+](C)c3cc(Cl)ccc23)Sc2ccccc21	34 nM	180 nM	5.3		
	1 °C	< 1 °C		960 nM	CN1C=CC(=Cc2sc3ccccc3[n+]2C)C=C1	140 nM	2800 nM	20		
	3 °C	2 °C			CN1/C(=C/c2cc[n+](C)c3cccc(-c4ccccc4)c23)Sc2ccccc21	42 nM	160 nM	3.8		
					COc1cccc2c1c(/C=C1\Sc3ccccc3N1C)cc[n+]2C	25 nM	86 nM	3.4		
	< 1 °C	< 1 °C		1700 nM	CN1/C(=C/c2cccc[n+]2C)Sc2ccccc21	290 nM	2500 nM	8.6		
	3 °C	4 °C			Cc1cccc2c1c(/C=C1\Sc3ccccc3N1C)cc[n+]2C	24 nM	120 nM	5		
